Experimental data: patent publication US20100222269A1, “IMPROVED DERIVATIVES OF AMYLIN” (priority 2007, published 2010)
Like-named read-outs stand apart in the source and are kept apart here. Positions of bridges follow the written chain, without caps; N, C: chain ends. Residues, ends and D or L forms follow the SMILES beside them. Groups on a side chain read outwards from the residue. *: point of attachment. C20 diacid = O=C(O)CCCCCCCCCCCCCCCCCCC(=O)*; C18 diacid = O=C(O)CCCCCCCCCCCCCCCCC(=O)*; AEEA = NCCOCCOCC(=O)O

Molecular target: T1, Amylin 3(a) receptor (human calcitonin receptor (CTa) with RAMP-3) (Homo sapiens, UniProt O60896+P30988)
T1 construct: expressed in transfected cells; host or cells: BHK570 (baby hamster kidney) cells, stably transfected, with CRE-luciferase reporter
Experiment: Amylin luciferase assay (CRE-luciferase reporter in BHK Amylin 3(a)//CRE-luc cells)
Assay type: cell-based
Text: It has previously been published (Poyner D R et al 2002, Pharmacological Reviews 54(2) 233-246) that activation of Amylin receptors (coexpression of Calcitonin receptor and receptor activity modifying peptides RAMPs) by Amylin leads to an increase in the intracellular concentration of cAMP. Consequently, transcription is activated at promotors containing multiple copies of the cAMP response element (CRE). It is thus possible to measure Amylin activity by use of a CRE luciferase reporter gene introduced into BHK cells also expressing an Amylin receptor.
2. Construction of an Amylin 3(a)/CRE-luc Cell Line
A BHK570 cell line stably transfected with the human calcitonin receptor (CTa) and a CRE-responsive luciferase reportergene. The cell line was further transfected with RAMP-3, using standard methods. This turns the Calcitonin receptor into an Amylin 3(a) receptor. Methotrexate, Neomycin, and Hygromycin are selection markers for luciferase, the Calcitonin receptor, and RAMP-3, respectively.
3. Amylin Luciferase Assay
To perform activity assays, BHK Amylin 3(a)//CRE-luc cells were seeded in white 96 well culture plates at a density of about 20.000 cells/well. The cells were in 100 μl growth medium (DMEM with 10% FBS, 1% Pen/Strep, 1 mM Na-pyruvate, 250 nM Methotrexate, 500 μg/ml Neomycin, and 400 μg/ml Hygromycin). After incubation overnight at 37° C. and 5% CO2, the growth medium was replaced by 50 μl/well assay medium (DMEM (without phenol red), Glumamax™, 10% FBS, and 10 mM Hepes, pH 7,4). Further, 50 μl/well of standard or sample in assay buffer were added. After 4 hours incubation at 37° C. and 5% CO2, the assay medium with standard or sample were removed and replaced by 100 μl/well PBS. Further, 100 μl/well LucLite™ was added. The plates were sealed and incubated at room temperature for 30 minutes. Finally, luminescence was measured on a TopCounter (Packard) in SPC (single photon counting) mode.

[1] = BHK570 cells with human calcitonin receptor (CTa), RAMP-3 and CRE-luciferase reporter, 4 hours incubation, read-out: Potency luciferase assay

T1 sequence (O60896 24-148): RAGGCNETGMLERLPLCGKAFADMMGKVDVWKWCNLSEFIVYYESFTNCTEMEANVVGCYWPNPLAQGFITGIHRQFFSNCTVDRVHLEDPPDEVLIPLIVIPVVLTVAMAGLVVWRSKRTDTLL
T1 sequence (P30988 25-474): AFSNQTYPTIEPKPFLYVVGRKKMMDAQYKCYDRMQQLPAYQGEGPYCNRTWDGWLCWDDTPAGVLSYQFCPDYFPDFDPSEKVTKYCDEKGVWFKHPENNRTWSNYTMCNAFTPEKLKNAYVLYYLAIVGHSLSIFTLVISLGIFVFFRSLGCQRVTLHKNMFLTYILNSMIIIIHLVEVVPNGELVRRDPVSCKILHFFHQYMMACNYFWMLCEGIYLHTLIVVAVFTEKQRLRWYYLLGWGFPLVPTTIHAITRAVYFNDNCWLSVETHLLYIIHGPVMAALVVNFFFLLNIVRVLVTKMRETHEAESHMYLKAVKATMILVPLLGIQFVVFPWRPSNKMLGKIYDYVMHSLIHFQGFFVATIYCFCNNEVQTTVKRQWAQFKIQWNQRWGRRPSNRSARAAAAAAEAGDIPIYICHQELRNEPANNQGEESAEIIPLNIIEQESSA

| SMILES | EC50 [1] | EC50 |
| --- | --- | --- |
| CC[C@H](C)[C@H](NC(=O)[C@@H]1CCCN1C(=O)CNC(=O)[C@H](Cc1ccccc1)NC(=O)[C@H](CC(N)=O)NC(=O)[C@H](CC(N)=O)NC(=O)[C@H](CO)NC(=O)[C@H](CO)NC(=O)[C@H](Cc1c[nH]cn1)NC(=O)[C@@H](NC(=O)[C@H](CC(C)C)NC(=O)[C@H](Cc1ccccc1)NC(=O)[C@H](CC(N)=O)NC(=O)[C@H](C)NC(=O)[C@H](CC(C)C)NC(=O)[C@H](CCCNC(=N)N)NC(=O)[C@H](CCC(N)=O)NC(=O)[C@@H](NC(=O)[C@H](C)NC(=O)[C@@H]1CSSC[C@H](NC(=O)[C@@H](N)CCCCN)C(=O)N[C@@H](CC(N)=O)C(=O)N[C@@H]([C@@H](C)O)C(=O)N[C@@H](C)C(=O)N[C@@H]([C@@H](C)O)C(=O)N1)[C@@H](C)O)C(C)C)C(=O)N[C@@H](CC(C)C)C(=O)N1CCC[C@H]1C(=O)N[C@@H](CCCCNC(=O)COCCOCCNC(=O)COCCOCCNC(=O)CCCCCCCCCCCCCCCCCCC(=O)O)C(=O)N[C@H](C(=O)N[C@@H](CC(N)=O)C(=O)N[C@H](C(=O)NCC(=O)N[C@@H](CO)C(=O)N[C@@H](CC(N)=O)C(=O)N[C@H](C(=O)N[C@@H](Cc1ccc(O)cc1)C(N)=O)[C@@H](C)O)C(C)C)[C@@H](C)O [Example 6, N-epsilon29-(2-{2-[2-(2-{2-[2-(19-carboxynonadecanoylamino)ethoxy]ethoxy}acetylamino)ethoxy]ethoxy}acetyl)-[Lys29]-pramlintide (1-37)] (H-KCNTATCATQRLANFLVHSSNNFGPILPK([AEEA-AEEA-C20 diacid])TNVGSNTY-NH2; disulfide 2-7; N-terminus and C-terminus assumed) | 0.2 nM |  |
| CC[C@H](C)[C@H](NC(=O)[C@@H]1CCCN1C(=O)CNC(=O)[C@H](Cc1ccccc1)NC(=O)[C@H](CC(N)=O)NC(=O)[C@H](CC(N)=O)NC(=O)[C@H](CO)NC(=O)[C@H](CO)NC(=O)[C@H](Cc1c[nH]cn1)NC(=O)[C@H](CCCCNC(=O)COCCOCCNC(=O)COCCOCCNC(=O)CCCCCCCCCCCCCCCCCCC(=O)O)NC(=O)[C@H](CC(C)C)NC(=O)[C@H](Cc1ccccc1)NC(=O)[C@H](CC(N)=O)NC(=O)[C@H](C)NC(=O)[C@H](CC(C)C)NC(=O)[C@H](CCCNC(=N)N)NC(=O)[C@H](CCC(N)=O)NC(=O)[C@@H](NC(=O)[C@H](C)NC(=O)[C@@H]1CSSC[C@H](NC(=O)[C@@H](N)CCCCN)C(=O)N[C@@H](CC(N)=O)C(=O)N[C@@H]([C@@H](C)O)C(=O)N[C@@H](C)C(=O)N[C@@H]([C@@H](C)O)C(=O)N1)[C@@H](C)O)C(=O)N[C@@H](CC(C)C)C(=O)N1CCC[C@H]1C(=O)N1CCC[C@H]1C(=O)N[C@H](C(=O)N[C@@H](CC(N)=O)C(=O)N[C@H](C(=O)NCC(=O)N[C@@H](CO)C(=O)N[C@@H](CC(N)=O)C(=O)N[C@H](C(=O)N[C@@H](Cc1ccc(O)cc1)C(N)=O)[C@@H](C)O)C(C)C)[C@@H](C)O [Example 8, N-epsilon17-(2-{2-[2-(2-{2-[2-(19-carboxynonadecanoylamino)ethoxy]ethoxy}acetylamino)ethoxy]ethoxy}acetyl)-[Lys17]-pramlintide (1-37)] (H-KCNTATCATQRLANFLK([AEEA-AEEA-C20 diacid])HSSNNFGPILPPTNVGSNTY-NH2; disulfide 2-7; N-terminus assumed) |  | 0.1 nM |

The next lines start with results.

| EC50 [1] | SMILES | EC50 |
| --- | --- | --- |
| 0.05 nM | CC[C@H](C)[C@H](NC(=O)[C@@H]1CCCN1C(=O)CNC(=O)[C@H](Cc1ccccc1)NC(=O)[C@H](CC(N)=O)NC(=O)[C@H](CC(N)=O)NC(=O)[C@H](CO)NC(=O)[C@H](CO)NC(=O)[C@H](Cc1c[nH]cn1)NC(=O)[C@@H](NC(=O)[C@H](CC(C)C)NC(=O)[C@H](Cc1ccccc1)NC(=O)[C@H](CC(N)=O)NC(=O)[C@H](C)NC(=O)[C@H](CC(C)C)NC(=O)[C@H](CCCNC(=N)N)NC(=O)[C@H](CCC(N)=O)NC(=O)[C@@H](NC(=O)[C@H](C)NC(=O)[C@@H]1CSSC[C@H](NC(=O)[C@@H](N)CCCCN)C(=O)N[C@@H](CCCCNC(=O)CCCCCCCCCCCCCCCCC(=O)O)C(=O)N[C@@H]([C@@H](C)O)C(=O)N[C@@H](C)C(=O)N[C@@H]([C@@H](C)O)C(=O)N1)[C@@H](C)O)C(C)C)C(=O)N[C@@H](CC(C)C)C(=O)N1CCC[C@H]1C(=O)N1CCC[C@H]1C(=O)N[C@H](C(=O)N[C@@H](CC(N)=O)C(=O)N[C@H](C(=O)NCC(=O)N[C@@H](CO)C(=O)N[C@@H](CC(N)=O)C(=O)N[C@H](C(=O)N[C@@H](Cc1ccc(O)cc1)C(N)=O)[C@@H](C)O)C(C)C)[C@@H](C)O [Example 2, N-epsilon3-(17-carboxyheptadecanoyl)-[Lys3]-pramlintide (1-37)] (H-KCK(C18 diacid)TATCATQRLANFLVHSSNNFGPILPPTNVGSNTY-NH2; disulfide 2-7; N-terminus and C-terminus assumed) |  |
| 0.1 nM | CC[C@H](C)[C@H](NC(=O)[C@@H]1CCCN1C(=O)CNC(=O)[C@H](Cc1ccccc1)NC(=O)[C@H](CC(N)=O)NC(=O)[C@H](CC(N)=O)NC(=O)[C@H](CO)NC(=O)[C@H](CO)NC(=O)[C@H](Cc1c[nH]cn1)NC(=O)[C@@H](NC(=O)[C@H](CC(C)C)NC(=O)[C@H](Cc1ccccc1)NC(=O)[C@H](CC(N)=O)NC(=O)[C@H](C)NC(=O)[C@H](CC(C)C)NC(=O)[C@H](CCCNC(=N)N)NC(=O)[C@H](CCC(N)=O)NC(=O)[C@@H](NC(=O)[C@H](C)NC(=O)[C@@H]1CSSC[C@H](NC(=O)[C@@H](N)CCCCN)C(=O)N[C@@H](CCCCNC(=O)COCCOCCNC(=O)COCCOCCNC(=O)CCCCCCCCCCCCCCCCC(=O)O)C(=O)N[C@@H]([C@@H](C)O)C(=O)N[C@@H](C)C(=O)N[C@@H]([C@@H](C)O)C(=O)N1)[C@@H](C)O)C(C)C)C(=O)N[C@@H](CC(C)C)C(=O)N1CCC[C@H]1C(=O)N1CCC[C@H]1C(=O)N[C@H](C(=O)N[C@@H](CC(N)=O)C(=O)N[C@H](C(=O)NCC(=O)N[C@@H](CO)C(=O)N[C@@H](CC(N)=O)C(=O)N[C@H](C(=O)N[C@@H](Cc1ccc(O)cc1)C(N)=O)[C@@H](C)O)C(C)C)[C@@H](C)O [Example 3, N-epsilon3-(2-{2-[2-(2-{2-[2-(17-carboxyheptadecanoylamino)ethoxy]ethoxy}acetylamino)ethoxy]ethoxy}acetyl)-[Lys3]-pramlintide (1-37)] (H-KCK([AEEA-AEEA-C18 diacid])TATCATQRLANFLVHSSNNFGPILPPTNVGSNTY-NH2; disulfide 2-7) |  |
| 0.1 nM | CC[C@H](C)[C@H](NC(=O)[C@@H]1CCCN1C(=O)CNC(=O)[C@H](Cc1ccccc1)NC(=O)[C@H](CC(N)=O)NC(=O)[C@H](CCCCNC(=O)COCCOCCNC(=O)COCCOCCNC(=O)CCCCCCCCCCCCCCCCCCC(=O)O)NC(=O)[C@H](CO)NC(=O)[C@H](CO)NC(=O)[C@H](Cc1c[nH]cn1)NC(=O)[C@@H](NC(=O)[C@H](CC(C)C)NC(=O)[C@H](Cc1ccccc1)NC(=O)[C@H](CC(N)=O)NC(=O)[C@H](C)NC(=O)[C@H](CC(C)C)NC(=O)[C@H](CCCNC(=N)N)NC(=O)[C@H](CCC(N)=O)NC(=O)[C@@H](NC(=O)[C@H](C)NC(=O)[C@@H]1CSSC[C@H](NC(=O)[C@@H](N)CCCCN)C(=O)N[C@@H](CC(N)=O)C(=O)N[C@@H]([C@@H](C)O)C(=O)N[C@@H](C)C(=O)N[C@@H]([C@@H](C)O)C(=O)N1)[C@@H](C)O)C(C)C)C(=O)N[C@@H](CC(C)C)C(=O)N1CCC[C@H]1C(=O)N1CCC[C@H]1C(=O)N[C@H](C(=O)N[C@@H](CC(N)=O)C(=O)N[C@H](C(=O)NCC(=O)N[C@@H](CO)C(=O)N[C@@H](CC(N)=O)C(=O)N[C@H](C(=O)N[C@@H](Cc1ccc(O)cc1)C(N)=O)[C@@H](C)O)C(C)C)[C@@H](C)O [Example 7, N-epsilon2′-(2-{2-[2-(2-{2-[2-(19-carboxynonadecanoylamino)ethoxy]ethoxy}acetylamino)ethoxy]ethoxy}acetyl)-[Lys21]-pramlintide (1-37)] (H-KCNTATCATQRLANFLVHSSK([AEEA-AEEA-C20 diacid])NFGPILPPTNVGSNTY-NH2; disulfide 2-7; N-terminus and C-terminus assumed) |  |
